# Reference: US20260297042A1, “BIARYLAMIDE DERIVATIVES AND THEIR USE AS PKMYT1 INHIBITORS” (CANCER RESEARCH TECHNOLOGY LIMITED, priority 2023, published 2026)
# Assays:
# WEE1 = target: T1, WEE1 (Homo sapiens, UniProt P30291); experiment: Selectivity versus WEE1 assay (ADP-Glo enzymatic assay); assay type: biochemical; conditions: banded; for IC50: ADP-Glo, 15 nM WEE1, 60 minutes at 26° C.; for PKMYT1 vs. WEE1 selectivity: fold difference in selectivity for PKMYT1 over WEE1, ">N" = at least in this band but could be higher
# T1 construct: purchased Thermo Fisher PR7373A
# Procedure, shortened: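 ADP-Glo luminescent read-out after a 60-min, 26 °C kinase reaction of 15 nM WEE1 with 30 µM ATP, in HEPES pH 7.5 buffer containing MgCl2, EGTA, Brij-35 and 1% DMSO. IC50 accepted only when replicate values agree within 3-fold and curve fit r2 exceeds 0.9.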
# Human PKMYT1 = target: T2, Human PKMYT1 (Homo sapiens, UniProt Q99640); experiment: PKMYT1 biochemical ADP-Glo enzymatic assay; conditions: ADP-Glo; 15 nM PKMYT1 kinase domain, 500 µM ATP, 60 minutes at 26° C.; banded
# T2 construct: Human PKMYT1 75-362 was cloned as a TEV cleavable 6xHis fusion; 6xHis (TEV cleavable) (cleaved yes); made in house; host or cells: bacterial cells
# T2 sequence (Q99640 75-362): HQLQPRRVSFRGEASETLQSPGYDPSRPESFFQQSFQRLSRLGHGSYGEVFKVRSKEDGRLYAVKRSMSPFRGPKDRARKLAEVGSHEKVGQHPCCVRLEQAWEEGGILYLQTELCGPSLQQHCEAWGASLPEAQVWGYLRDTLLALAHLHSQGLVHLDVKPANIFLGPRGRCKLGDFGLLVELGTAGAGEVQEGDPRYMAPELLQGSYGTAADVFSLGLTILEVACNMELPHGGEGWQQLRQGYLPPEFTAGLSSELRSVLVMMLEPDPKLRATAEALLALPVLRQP
# Procedure, shortened: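 IC50 values come from 10-point 3-fold series, with replicates required within 3-fold and r2 >0.9. ADP formed by PKMYT1 intrinsic ATPase (500 uM ATP, 60 min, 26° C.) was quantified by ADP-Glo luminescence. The enzyme was the TEV-cleaved kinase domain 75-362 at 15 nM, in HEPES pH 7.5 buffer.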
# T1 sequence (P30291 whole entry): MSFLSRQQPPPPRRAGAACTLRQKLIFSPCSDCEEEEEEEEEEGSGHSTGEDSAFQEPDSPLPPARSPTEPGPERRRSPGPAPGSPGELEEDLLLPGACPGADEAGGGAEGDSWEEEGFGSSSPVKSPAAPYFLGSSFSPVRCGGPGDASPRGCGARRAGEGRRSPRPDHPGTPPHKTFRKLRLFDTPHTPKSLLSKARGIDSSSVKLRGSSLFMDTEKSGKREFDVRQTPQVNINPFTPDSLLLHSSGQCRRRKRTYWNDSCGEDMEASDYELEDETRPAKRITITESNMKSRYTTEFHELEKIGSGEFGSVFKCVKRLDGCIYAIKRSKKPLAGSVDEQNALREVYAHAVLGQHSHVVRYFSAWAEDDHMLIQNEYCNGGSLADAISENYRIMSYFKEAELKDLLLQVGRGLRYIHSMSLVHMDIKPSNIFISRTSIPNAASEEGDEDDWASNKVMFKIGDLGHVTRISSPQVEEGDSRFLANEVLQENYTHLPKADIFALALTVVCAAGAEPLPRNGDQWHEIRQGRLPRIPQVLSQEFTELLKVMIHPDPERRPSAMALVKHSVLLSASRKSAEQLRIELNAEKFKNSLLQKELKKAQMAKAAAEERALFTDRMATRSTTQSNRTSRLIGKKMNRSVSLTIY
IC50 (WEE1),PKMYT1 vs. WEE1 selectivity (WEE1),IC50 (Human PKMYT1),Compound
> 11 µM,Y (1000-5000 fold),0.05 to 1 µM,"Cc1ccc(O)c(C)c1NC(=O)c1cnc(Nc2ccc3cc(Br)cnc3n2)s1 [BAA-298, 2-((6-bromo-1,8-naphthyridin-2-yl)amino)-N-(3-hydroxy-2,6-dimethylphenyl)thiazole-5-carboxamide]"
1 to 11 µM,X (100-<1000 fold),< 0.05 µM,"Cc1ccc(O)c(C)c1NC(=O)c1cnc(Nc2ccc(NC(=O)CC(C)C)cn2)s1 [BAA-299, N-(3-hydroxy-2,6-dimethylphenyl)-2-((5-(3-methylbutanamido)pyridin-2-yl)amino)thiazole-5-carboxamide]"
> 11 µM,X (100-<1000 fold),0.05 to 1 µM,"Cc1ccc(O)c(C)c1NC(=O)c1cnc(Nc2ccc3cc(Br)ccc3n2)s1 [BAA-300, 2-((6-bromoquinolin-2-yl)amino)-N-(3-hydroxy-2,6-dimethylphenyl)thiazole-5-carboxamide]"
> 11 µM,X (100-<1000 fold),0.05 to 1 µM,"Cc1ccc(O)c(C)c1NC(=O)c1cnc(Nc2nc(C)c(-c3cc(F)cc(F)c3)c(C)n2)s1 [BAA-301, 2-((5-(3,5-difluorophenyl)-4,6-dimethylpyrimidin-2-yl)amino)-N-(3-hydroxy-2,6-dimethylphenyl)thiazole-5-carboxamide]"
> 11 µM,X (100-<1000 fold),0.05 to 1 µM,"Cc1ccc(O)c(C)c1NC(=O)c1cnc(Nc2ccc(NC(=O)c3c(F)cc(F)cc3F)cn2)s1 [BAA-302, N-(3-hydroxy-2,6-dimethylphenyl)-2-((5-(2,4,6-trifluorobenzamido)pyridin-2-yl)amino)thiazole-5-carboxamide]"
> 11 µM,X (100-<1000 fold),0.05 to 1 µM,"Cc1ccc(O)c(C)c1NC(=O)c1cnc(Nc2ccnc(-c3ccc(F)cc3)c2)s1 [BAA-304, 2-((2-(4-fluorophenyl)pyridin-4-yl)amino)-N-(3-hydroxy-2,6-dimethylphenyl)thiazole-5-carboxamide]"
> 11 µM,W (10-<100 fold),1 to 11 µM,"Cc1ccc(O)c(C)c1NC(=O)c1cnc(Nc2cncc(-c3ccc(F)cc3)c2)s1 [BAA-305, 2-((5-(4-fluorophenyl)pyridin-3-yl)amino)-N-(3-hydroxy-2,6-dimethylphenyl)thiazole-5-carboxamide]"
> 11 µM,X (100-<1000 fold),0.05 to 1 µM,"Cc1ccc(O)c(C)c1NC(=O)c1cnc(Nc2ccc(Nc3ccc(F)cc3)cn2)s1 [BAA-310, 2-((5-((4-fluorophenyl)amino)pyridin-2-yl)amino)-N-(3-hydroxy-2,6-dimethylphenyl)thiazole-5-carboxamide]"
> 11 µM,Y (1000-5000 fold),0.05 to 1 µM,"Cc1ccc(O)c(C)c1NC(=O)c1cnc(Nc2cc(C(F)(F)F)nc(OCC(F)(F)F)n2)s1 [BAA-318, N-(3-hydroxy-2,6-dimethylphenyl)-2-((2-(2,2,2-trifluoroethoxy)-6-(trifluoromethyl)pyrimidin-4-yl)amino)thiazole-5-carboxamide]"
> 11 µM,X (100-<1000 fold),0.05 to 1 µM,"Cc1cc(Nc2ccc(F)cc2)nnc1Nc1ncc(C(=O)Nc2c(C)ccc(O)c2C)s1 [BAA-324, 2-((6-((4-fluorophenyl)amino)-4-methylpyridazin-3-yl)amino)-N-(3-hydroxy-2,6-dimethylphenyl)thiazole-5-carboxamide]"
1 to 11 µM,W (10-<100 fold),0.05 to 1 µM,"Cc1ccc(O)c(C)c1NC(=O)c1cnc(Nc2cc3ccc(O)cn3n2)s1 [BAA-343, N-(3-Hydroxy-2,6-dimethylphenyl)-2-((6-hydroxypyrazolo[1,5-a]pyridin-2-yl)amino)thiazole-5-carboxamide]"
> 11 µM,Y (1000-5000 fold),0.05 to 1 µM,"Cc1ccc(O)c(C)c1NC(=O)c1cnc(NCc2ccccc2)s1 [BAA-344, 2-(benzylamino)-N-(3-hydroxy-2,6-dimethylphenyl) thiazole-5-carboxamide]"
> 11 µM,Y (1000-5000 fold),0.05 to 1 µM,"Cc1ccc(O)c(C)c1NC(=O)c1cnc(NCc2cccnc2)s1 [BAA-345, N-(3-hydroxy-2,6-dimethylphenyl)-2-((pyridin-3-ylmethyl)amino)thiazole-5-carboxamide]"
> 11 µM,Y (1000-5000 fold),< 0.05 µM,"Cc1ccc(O)c(C)c1NC(=O)c1cnc(NCc2cccc(O)c2)s1 [BAA-346, N-(3-hydroxy-2,6-dimethylphenyl)-2-((3-hydroxybenzyl)amino)thiazole-5-carboxamide]"
> 11 µM,X (100-<1000 fold),0.05 to 1 µM,Cc1ccc(O)c(C)c1NC(=O)c1cnc(NCC2CC2)s1 [BAA-347]
> 11 µM,X (100-<1000 fold),0.05 to 1 µM,"Cc1ccc(O)c(C)c1NC(=O)c1cnc(NCc2ccn(C)n2)s1 [BAA-348, N-(3-hydroxy-2,6-dimethylphenyl)-2-(((1-methyl-1H-pyrazol-3-yl)methyl)amino) thiazole-5-carboxamide]"
> 11 µM,X (100-<1000 fold),0.05 to 1 µM,"Cc1ccc(O)c(C)c1NC(=O)c1cnc(NCc2ccccn2)s1 [BAA-349, N-(3-hydroxy-2,6-dimethylphenyl)-2-((pyridin-2-ylmethyl)amino) thiazole-5-carboxamide]"
> 11 µM,Y (1000-5000 fold),0.05 to 1 µM,"Cc1ccc(O)c(C)c1NC(=O)c1cnc(NCc2ccncc2)s1 [BAA-350, N-(3-hydroxy-2,6-dimethylphenyl)-2-((pyridin-4-ylmethyl)amino) thiazole-5-carboxamide]"
> 11 µM,W (10-<100 fold),1 to 11 µM,"Cc1ccc(O)c(C)c1NC(=O)c1cnc(N[C@@H](C)c2ccccc2)s1 [BAA-351, (S)-N-(3-hydroxy-2,6-dimethylphenyl)-2-((1-phenylethyl)amino) thiazole-5-carboxamide]"
> 11 µM,X (100-<1000 fold),0.05 to 1 µM,"COc1ccc(CNc2ncc(C(=O)Nc3c(C)ccc(O)c3C)s2)cc1 [BAA-352, N-(3-hydroxy-2,6-dimethylphenyl)-2-((4-methoxybenzyl)amino)thiazole-5-carboxamide]"
> 11 µM,W (10-<100 fold),1 to 11 µM,"Cc1ccc(O)c(C)c1NC(=O)c1cnc(NC2Cc3ccccc3C2)s1 [BAA-353, 2-((2,3-dihydro-1H-inden-2-yl)amino)-N-(3-hydroxy-2,6-dimethylphenyl)thiazole-5-carboxamide]"
> 11 µM,W (10-<100 fold),1 to 11 µM,"Cc1ccc(O)c(C)c1NC(=O)c1cnc(N[C@H](C)c2ccccc2)s1 [BAA-354, (R)-N-(3-hydroxy-2,6-dimethylphenyl)-2-((1-phenylethyl)amino) thiazole-5-carboxamide]"
> 11 µM,X (100-<1000 fold),0.05 to 1 µM,"COc1ccccc1CNc1ncc(C(=O)Nc2c(C)ccc(O)c2C)s1 [BAA-355, N-(3-hydroxy-2,6-dimethylphenyl)-2-((2-methoxybenzyl)amino) thiazole-5-carboxamide]"
